In patent US20130045952A1, “ABA Receptor Agonists for Increased Plant Stress Resistance” (Van Andel Research Institute, priority 2011, published 2013):

Experiments:
Format in all cases: biochemical
His6-PYL2 / biotin-PP2C = target: T1, His6-PYL2 / biotin-PP2C (Arabidopsis thaliana, UniProt O80992); assay: AlphaScreen luminescence proximity assay, PYL2-PP2C interaction; settings: for Stimulation of the interaction between PYL2 and PP2C (binding signal): 100 nM His6-PYL2, 100 nM biotin-PP2C, 100 μM agonist, normalized against a pyrabactin control
T1 construct: PYL2 (residues 14-188), and HAB1 (residues 172-511) were prepared as recombinant proteins in E. coli; made in house; host or cells: E. coli
T1 sequence (O80992 14-188): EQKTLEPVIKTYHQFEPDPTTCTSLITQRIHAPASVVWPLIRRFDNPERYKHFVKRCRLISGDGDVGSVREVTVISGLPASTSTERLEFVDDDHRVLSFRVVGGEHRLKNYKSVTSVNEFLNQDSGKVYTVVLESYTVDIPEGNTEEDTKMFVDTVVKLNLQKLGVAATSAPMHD
Experimental: (§1) Mutant proteins were expressed as H6GST-fusion proteins and purified by glutathione sepharose chromatography. Protein-protein interactions were determined by luminescence proximity AlphaScreen assay. Biotinylated PP2C proteins for the luminescence proximity assay were generated by in vivo biotinylation of avitag-PP2C fusion proteins. PP2C phosphatase activity was measured by phosphate release from a SnRK2.6 phosphoprotein.
(§2) Interactions between PYR/PYL and PP2Cs were assessed by luminescence-proximity AlphaScreen technology (Perkin Elmer). Briefly, biotinylated PP2Cs were attached to streptavidin-coated donor beads, and H6-tagged PYR/PYL receptors were attached to nickel-chelated acceptor beads. The donor and acceptor beads were brought into proximity by the interactions between PYR/PYLs and PP2Cs, which were measured with and without ligands. When excited by a laser beam of 680 nm, the donor beam emits singlet oxygen that activates thioxene derivatives in the acceptor beads, which releases photons of 520-620 nm as the binding signal. The experiments were conducted with 100 nM of PP2Cs and PYR/PYL proteins in the presence of 5 ug/ml donor and acceptor beads in a buffer of 50 mM MOPS, pH7.4, 50 mM NaF, […], and 0.1 mg/ml bovine serum albumin. The results were based on an average of three experiments with standard errors typically less than 10% of the measurements.
(§3) Values were determined in different experiments and normalized against a pyrabactin control. Blank spaces mean no experimental data is available. Key (photon counts (binding signal units) in Alphascreen luminescence proximity assay): “+++ is >75,000; ++ is 25,000−75,000; + is <25,000.

His6-PYL3 / biotin-PP2C = target: T2, His6-PYL3 / biotin-PP2C (Arabidopsis thaliana, UniProt Q9SSM7); assay: AlphaScreen luminescence proximity assay, PYL3-PP2C interaction; settings: for Stimulation of the interaction between PYL3 and PP2C (binding signal): 100 nM His6-PYL3, 100 nM biotin-PP2C, 100 μM agonist, normalized against a pyrabactin control
T2 construct: made in house; host or cells: not expressly stated for PYL3
T2 sequence (Q9SSM7 1-209): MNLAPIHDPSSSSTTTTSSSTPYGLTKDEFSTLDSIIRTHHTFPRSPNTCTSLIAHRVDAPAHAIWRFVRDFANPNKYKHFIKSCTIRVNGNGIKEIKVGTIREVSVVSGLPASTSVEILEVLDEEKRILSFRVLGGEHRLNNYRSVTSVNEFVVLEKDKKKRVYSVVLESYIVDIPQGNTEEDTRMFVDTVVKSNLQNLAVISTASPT
Experimental: as §1, §2, §3

His6-PYR1 / biotin-ABI1 = target: T3, His6-PYR1 / biotin-ABI1 (Arabidopsis thaliana, UniProt O49686); assay: AlphaScreen dose response, PYR1-ABI1 interaction; settings: 100 nM His6-PYR1, 100 nM biotin-PP2C, 0-100 μM agonist; from dose response curves
T3 construct: made in house; host or cells: E. coli (stated for the PP2Cs; not expressly for PYR1)
T3 sequence (O49686 1-191): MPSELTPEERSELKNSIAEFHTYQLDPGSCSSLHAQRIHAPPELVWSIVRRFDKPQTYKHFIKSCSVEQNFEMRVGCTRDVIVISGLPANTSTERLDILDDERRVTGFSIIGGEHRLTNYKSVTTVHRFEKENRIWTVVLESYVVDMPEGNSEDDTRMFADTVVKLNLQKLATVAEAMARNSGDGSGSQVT
T3 sequence (P49597 117-434 partner limits assumed): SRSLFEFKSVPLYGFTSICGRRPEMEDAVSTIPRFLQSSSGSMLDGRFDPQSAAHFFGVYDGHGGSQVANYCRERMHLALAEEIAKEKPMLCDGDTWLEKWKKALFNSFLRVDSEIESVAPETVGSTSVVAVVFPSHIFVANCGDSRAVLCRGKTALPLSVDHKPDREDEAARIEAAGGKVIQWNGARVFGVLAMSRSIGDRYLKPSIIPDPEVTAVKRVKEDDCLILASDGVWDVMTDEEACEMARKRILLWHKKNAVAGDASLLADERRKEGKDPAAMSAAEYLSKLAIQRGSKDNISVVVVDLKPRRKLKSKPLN
Experimental: as §2
(§4) The results shown in Table 5b were calculated from the dose response curves of the dependence of the interaction between 100 nM His6-PYR1 and 100 nM biotin-PP2C on the presence of 0-100 μM agonists determined by AlphaScreen luminescence proximity assay. Key (EC50 in μM): ++++=<5.0 μM; +++=5-10 μM; ++=10-20 μM; and +=>20-60 μM.

His6-PYR1 / biotin-ABI2 = target: T4, His6-PYR1 / biotin-ABI2 (Arabidopsis thaliana, UniProt O49686); assay: AlphaScreen dose response, PYR1-ABI2 interaction; settings: 100 nM His6-PYR1, 100 nM biotin-PP2C, 0-100 μM agonist; from dose response curves
T4 construct: made in house; host or cells: E. coli (stated for the PP2Cs; not expressly for PYR1)
T4 sequence (O49686 1-191): T3 sequence (O49686 1-191)
T4 sequence (O04719 101-423 partner limits assumed): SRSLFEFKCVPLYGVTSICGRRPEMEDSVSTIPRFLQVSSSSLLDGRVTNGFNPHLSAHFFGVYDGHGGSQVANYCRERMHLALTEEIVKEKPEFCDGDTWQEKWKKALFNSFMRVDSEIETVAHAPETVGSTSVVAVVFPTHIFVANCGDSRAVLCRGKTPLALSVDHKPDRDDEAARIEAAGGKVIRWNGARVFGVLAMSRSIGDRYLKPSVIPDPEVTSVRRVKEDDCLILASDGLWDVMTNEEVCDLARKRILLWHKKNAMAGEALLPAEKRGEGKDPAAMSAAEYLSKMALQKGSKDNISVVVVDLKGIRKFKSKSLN
Experimental: as §2, §4

ABI1 = target: T5, ABI1 (Arabidopsis thaliana, UniProt O49686+P49597); assay: PP2C phosphatase activity assay, ABI1; settings: 200 nM PP2C; SnRK2.6 phosphopeptide substrate; None = 100
T5 construct: ABI1 (residues 117-434) and ABI2 (residues 101-423) were expressed as H6Sumo fusion proteins; H6Sumo (N); made in house; host or cells: E. coli BL21
T5 sequence (P49597 117-434 limits assumed): T3 sequence (P49597 117-434 partner limits assumed)
T5 sequence (O49686 1-191): T3 sequence (O49686 1-191)
Experimental: as §1
PP2Cs and PYR/PYL proteins were pre-incubated at the indicated concentrations in 50 mM imidazole, pH 7.2, 5 mM MgCl2, 0.1% β-mercaptoethanol and 0.5 mg/ml BSA for 30 min at room temperature. Reactions were started by addition of 100 μM of a phosphopeptide corresponding to amino acids 170-180 of SnRK2.6 (HSQPK^pSTVGTP). This peptide is phosphorylated at a single residue corresponding to Ser175 in SnRK2.6, whose phosphorylation is required for SnRK2.6 kinase activity^32. Phosphate release from ^pS175 from the phosphopeptide was determined by colorimetric assay (BioVision).

[1] = purified proteins in vitro, HAB1, ABI1, ABI2

Row | SMILES | Effect on ABA-dependent PYL2 interaction with all three PP2Cs (His6-PYL2 / biotin-PP2C; in the presence of ABA, concentration-dependent) | Promotion of PYL2 interaction with the three PP2Cs (His6-PYL2 / biotin-PP2C; [1]) | Promotion of PYL3 interaction with the three PP2Cs (His6-PYL3 / biotin-PP2C; [1]) | EC50 (His6-PYR1 / biotin-ABI1) [µM] | EC50 (His6-PYR1 / biotin-ABI2) [µM] | % Phosphatase Activity ABI1 (ABI1) [%] | Stimulation of the interaction between PYL2 and PP2C (binding signal) (His6-PYL2 / biotin-PP2C) | Stimulation of the interaction between PYL3 and PP2C (binding signal) (His6-PYL3 / biotin-PP2C)
1 | O=S(=O)(NCc1ccccn1)c1ccc(Br)c2ccccc12 [Pyrabactin, pyrabactin] | inhibited | did not promote | promoted interaction | 5 to 10 | 5 to 10 | 2.8 ± 0.2 |  | 
2 | O=C1Nc2ccc(S(=O)(=O)NCc3ccccn3)c3cccc1c23 [Compound 1] |  |  |  | 10 to 20 | 20 to 60 | 3.3 ± 1.0 | + (+ is <25,000) | + (+ is <25,000)
3 | CCN1C(=O)c2cccc3c(S(=O)(=O)NC[C@@H]4CCCO4)ccc1c23 [Compound 11] |  |  |  | 10 to 20 | 20 to 60 | 4.7 ± 1.0 | + (+ is <25,000) | ++ (++ is 25,000−75,000)
4 | CCOC(=O)CNS(=O)(=O)c1ccc2c3c(cccc13)C(=O)N2CC [Compound 2] |  |  |  | 10 to 20 | 20 to 60 | 4.3 ± 0.8 | + (+ is <25,000) | + (+ is <25,000)
